Key:
[1] = tested on: HT29 human colorectal carcinoma; assay: Anti-tumor effects and tumor necrosis, HT29; assay type: in vivo, BALB/c nu/nu mice
TNFα = TNFα serum levels in treated animals; assay type: in vivo, mice; details: tTF containing no endotoxin (n=6), any time point
Experimental: (§1) Mice were closely observed after treatment for clinical signs of toxicity and clinical status was documented at defined time points (5 minutes, 10 minutes, 15 minutes, 30 minutes, 1 hour, 2 hours, 24 hours, 48 hours, 72 hours). Blood samples were taken from the tail vein at 1 hour, 2 hours and 24 hours to measure TNFα blood levels. Three days after treatment, the mice were anesthetized, blood samples were taken from the vena cava for coagulation tests, and an autopsy was performed to document any changes in gross pathology. Tumors, lymph node metastases and the major normal organs (heart, lung, brain, liver, kidney, colon, spleen, pancreas) were harvested and prepared for histological analysis.
TNFα levels in serum were determined using the Quantikine-M kit (R&D Systems, Minneapolis, Minn.) according to the manufacturer's instructions.

[2] = tested on: C1300 Muγ mouse neuroblastoma; assay: In vivo tumor thrombosis and anti-tumor effects, C1300 (Muγ); parameters: species or system BALB/c nu/nu mice
[3] = tested on: 2F2B mouse endothelial cells; assay: Binding of tTF to endothelial cells (FACS, cell bound coagulation assay); assay type: cell-based
Experimental: Cells were washed and coagulation factor mix (as described above) was added. S2765 substrate was added and Factor Xa generation was measured as described above.
Fluorescent cells were detected on a flow cytometer (Becton Dickinson, San Jose, Calif.).

F9 sarcoma = assay: Sarcoma mouse model, tumor necrosis; assay type: in vivo, balb/c nude mice; details: endotoxin-free tTF, 4 μg
Experimental: 1×10^7 F9 sarcoma cells were injected subcutaneously into the right flank of balb/c nude mice. Subcutanous tumors were measured with a caliper in three perpendicular directions a, b, and c, and volumes calculated according to the formula V=π/6×a×b×c. Treatment was initiated when subcutaneous tumors reached a size of 150 to 300 μl.
Reagents were administered into the lateral tail vein.
Mice were closely observed after treatment for clinical signs of toxicity and clinical status was documented at defined time points. Three days after treatment, mice were sacrificed and tumors were harvested. Paraffin embedded tissues were stained with hematoxilin and eosin (H&E). Tissue sections were analyzed on a light microscope by two independent investigators and histological findings were documented. Tumor sections with necrotic areas were scanned with a GS-700 imaging densitometer (Biorad, Hercules, Calif.) and areas of necrosis were calculated as % of total section area.

[4] = tested on: L540 human Hodgkin's tumors; assay: Anti-VCAM-1•tTF coaguligand, L540; assay type: in vivo, SCID mice
Experimental: Mice bearing subcutaneous L540 tumors were injected intravenously with anti-VCAM-1 antibody and, two hours later, the mice were exsanguinated. The tumor and normal organs were removed and frozen sections were prepared and examined immunohistochemically to determine the location of the antibody. […] No localization of anti-VCAM-1 antibody was found in testis or any normal organ except heart and lung.
Before coaguligand injection, tumors were viable, having a uniform morphology lacking regions of necrosis. […] Within four hours of coaguligand injection, 40-70% of blood vessels were thrombosed, despite the initial staining of only 20-30% of tumor blood vessels. The thrombosed vessels contained occlusive platelet aggregates, packed erythrocytes and fibrin. In several regions, the blood vessels had ruptured, spilling erythrocytes into the tumor interstitium.
The drug was administered i.v. 3 times at intervals of 4 days.

[5] = tested on: thrombin-antithrombin-complexes (TAT); assay: Assessment of coagulation parameters: TAT; assay type: in vivo, mice; details: plasma, three days after i.v. treatment, tTF alone
Experimental: At the time of autopsy, citrated blood was sampled from the vena cava and thrombocyte-free plasma was prepared by centrifugation. The plasma was stored at −80° C. until further analysis. Thrombin-Antithrombin-complexes were detected with the Enzygnost® TAT micro-assay (Dade-Behring, Marburg, Germany) according to the manufacturer's instructions. ATIII levels were determined using the Coamatic® antithrombin-assay (Haemochrom, Essen, Germany) following the manufacturer's instructions. Changes in the blood levels of thrombin and plasmin were detected by mixing citrated plasma with the respective chromogenic substrates S2238 and S2403 (Haemochrom, Essen, Germany) and measuring the increase of the absorption at 405 nm by an ELISA reader.

[6] = Clinical signs of toxicity and histology of normal organs; assay type: in vivo, SCID mice; details: for Symptoms: tTF alone
Experimental: as §1
Tissue samples harvested at the time of autopsy were fixed in 3% NBF (normal buffered formalin) and embedded in paraffin wax. Tissue blocs were cut, dewaxed and stained with hematoxilin and eosin (H&E). Tissue sections were analyzed on a light microscope by two independent investigators and histological findings were documented. Tumor sections with necrotic areas were scanned with a GS-700 imaging densitometer (Biorad, Hercules, Calif.) and areas of necrosis were calculated as % of total section area. Statistical Analysis was performed using SPSS software (SPSS Science Software, Erkrath, Germany) applying the Mann-Whitney-U-test for ungrouped data.

[7] = tested on: L540rec human Hodgkin's lymphoma tumors; assay: Treatment studies, L540 Hodgkin's tumor necrosis; assay type: in vivo, SCID mice
Experimental: For in vivo studies, a metastasizing mouse model for human Hodgkin's lymphoma was used. 1×10^7 L540rec cells were injected subcutaneously into the right flank of SCID mice resulting in a subcutaneous tumor with lymph node metastases in the regional lymph node stations. Subcutanous tumors were measured with a caliper in three perpendicular directions a, b, and c, and volumes calculated according to the formula V=π/6×a×b×c.
Treatment was initiated when subcutaneous tumors reached a size of 150 to 300 μl. Reagents were administered into the lateral tail vein.
Mice were closely observed after treatment for clinical signs of toxicity and clinical status was documented at defined time points (5 minutes, 10 minutes, 15 minutes, 30 minutes, 1 hour, 2 hours, 24 hours, 48 hours, 72 hours). Blood samples were taken from the tail vein at 1 hour, 2 hours and 24 hours to measure TNFα blood levels. […]
Tissue samples harvested at the time of autopsy were fixed in 3% NBF (normal buffered formalin) and embedded in paraffin wax. […] Tissue sections were analyzed on a light microscope by two independent investigators and histological findings were documented. Tumor sections with necrotic areas were scanned with a GS-700 imaging densitometer (Biorad, Hercules, Calif.) and areas of necrosis were calculated as % of total section area. […]

tTF: extracellular domain of the mature Tissue Factor protein (amino acid 1-219)
growth discontinued after treatment ([1]; large (1200 mm^3) tumors, i.v.): about 7 days
necrosis in tumor sections ([1]; small HT29 tumors, single agents, 24 hours): some necrosis
TNFα serum level (TNFα): could not be detected
thrombosis of tumor vessels ([2]; 24 hours after injection): practically all vessels in all regions of the tumor were thrombosed
effect on vessels in small tumors ([2]; small (<500 mm^3) C1300 and C1300 Muγ): largely unaffected
tumor growth ([2]; tTF alone or mixed with control bispecific antibodies vs antibodies or saline alone): grew significantly more slowly
binding to endothelial cells expressing tissue factor [3]: no binding of tTF to endothelial cells
average tumor tissue necrosis (F9 sarcoma): 45%
effect on tumor growth ([4]; 0.3-0.4 cm^3 tumors, i.v. 3 times at intervals of 4 days): did not affect tumor growth
control reagents that caused thrombosis of tumor vessels ([4]; equivalent quantities): None
TAT [5]: 25.4 ng/mL
histological findings in normal organs ([6]; light microscopy, three days after treatment): No histological abnormalities
Symptoms ([6]; listed as TTF): None
Symptoms ([6]; listed as endotoxin-free tTF): no clinical signs of toxicity
tumor tissue necrosis ([7]; 4 μg or 16 μg endotoxin-free tTF alone): 0%
% tumor necrosis ([7]; Table 2, tTF alone): 4%

Source: US20030129193A1 (priority 2001, published 2003)
